Laboratory results: ChEMBL document CHEMBL1125250 (J Med Chem, 1991)

Experiments:
[1] = biological target: T1, Cholesterol side-chain cleavage enzyme, mitochondrial (Homo sapiens, UniProt P05108); type: functional, Cricetulus griseus
T1 sequence (P05108 whole entry): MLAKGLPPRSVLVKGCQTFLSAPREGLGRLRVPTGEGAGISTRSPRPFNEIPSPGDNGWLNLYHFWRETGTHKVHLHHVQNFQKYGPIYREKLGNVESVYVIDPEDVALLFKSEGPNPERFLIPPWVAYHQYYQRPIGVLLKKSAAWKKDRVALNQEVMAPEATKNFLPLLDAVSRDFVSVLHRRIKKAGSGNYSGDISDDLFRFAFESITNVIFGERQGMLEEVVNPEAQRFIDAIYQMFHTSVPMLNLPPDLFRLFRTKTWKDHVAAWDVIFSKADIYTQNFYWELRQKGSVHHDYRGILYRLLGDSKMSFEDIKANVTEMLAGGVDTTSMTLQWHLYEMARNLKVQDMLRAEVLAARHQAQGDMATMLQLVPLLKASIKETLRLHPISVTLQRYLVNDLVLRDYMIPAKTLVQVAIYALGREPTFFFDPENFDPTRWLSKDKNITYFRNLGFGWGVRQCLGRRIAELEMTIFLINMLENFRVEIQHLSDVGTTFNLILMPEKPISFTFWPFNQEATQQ

[2] = biological target: T2, Aromatase (Rattus norvegicus, UniProt P22443)
T2 sequence (P22443 whole entry): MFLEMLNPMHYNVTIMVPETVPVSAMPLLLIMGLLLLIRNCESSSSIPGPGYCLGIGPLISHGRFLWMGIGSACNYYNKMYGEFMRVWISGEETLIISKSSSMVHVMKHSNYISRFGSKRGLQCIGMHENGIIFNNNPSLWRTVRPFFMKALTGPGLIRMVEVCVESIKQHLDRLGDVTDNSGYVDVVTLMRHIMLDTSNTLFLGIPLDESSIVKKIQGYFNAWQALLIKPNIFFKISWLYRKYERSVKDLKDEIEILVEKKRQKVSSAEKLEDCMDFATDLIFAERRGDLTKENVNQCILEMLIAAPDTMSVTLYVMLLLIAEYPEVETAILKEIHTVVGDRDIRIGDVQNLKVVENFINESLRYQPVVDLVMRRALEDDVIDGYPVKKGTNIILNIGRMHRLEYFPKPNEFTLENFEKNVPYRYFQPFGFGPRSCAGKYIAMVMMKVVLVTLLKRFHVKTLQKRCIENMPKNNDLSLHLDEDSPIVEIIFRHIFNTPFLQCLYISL

Compound	IC50 [1] [µM]	EDmin [2] [µM/kg]
CCC1(c2ccc(N)cc2)CCC(=O)NC1=O (centres undefined) [AMINOGLUTETHIMIDE]	80	
OCc1ccc(C2CCCc3cncn32)cc1 (centres undefined)		0.5
CCOC(=O)c1ccc(C2CCCc3cncn32)cc1.Cl (centres undefined)		> 10
Brc1ccc(C2CCCc3cncn32)cc1.Cl (centres undefined)		0.5
